The test system of this assay is X. campestris Provencia strain. The assay is described as follows: growth (CFU) after 18 hours of incubation, oil compared to carvacrol (FIG. 2). Type of assay: cell-based, Xanthomonas campestris. As to conditions: 0.01 mg/ml, oil vs carvacrol p-value=0.009. The procedure:
The bars in the graph indicate the bacterial number (CFU) that was reached after 18 hours of incubation. […] Thus, a composition of biocide comprising oregano oil exerts synergistic effects, due, in part, to the multiple antimicrobial biochemicals that make up the oil (see FIG. 1).

The record followed here is patent US9913478B2, “Organic and environmentally “green” biocide compositions and applications” (Arrowhead Center, Inc., priority 2013, dated 2018).

Turning to `Cc1ccc(C(C)C)cc1O` [Carvacrol, carvacrol], the “inhibition of growth, bacterial number (CFU)” value is “not as effective as the essential oil”.
